Source: patent US20100056596A1, “RESISTANCE-REPELLENT RETROVIRAL PROTEASE INHIBITORS” (Sequoia Pharmaceuticals, priority 2004, published 2010)
Like-named read-outs stand apart in the source and are kept apart here.

Columns and labels:
wild type HIV-1 protease = target: T1, wild type HIV-1 protease (Human immunodeficiency virus type 1 group M subtype B, UniProt P04585); assay: Ki against wild type (WT) HIV-1 protease; assay type: biochemical
T1 construct: over 45 of the 99 amino acids of the HIV protease monomer

HIV-1 isolates, WT = assay: In vitro drug sensitivity of HIV-1 laboratory isolates, WT; assay type: cell-based
Method: (§1) In Vitro Drug Sensitivity of HIV-1 Laboratory Isolates to PIs
(§2) The sensitivities of HIV-1 isolates against compounds of the invention were determined as previously described with minor modifications (Shiraska et al., Proc. Natl. Acad. Sci. USA, 92, 2398-2402 (1995)).

HIV-1 isolates, Mutant 9 = assay: In vitro drug sensitivity of HIV-1 laboratory isolates, Mutant 9; assay type: cell-based
Method: as §1, §2

HIV-1 isolates, Mutant 8 = assay: In vitro drug sensitivity of HIV-1 laboratory isolates, Mutant 8; assay type: cell-based
Method: as §1, §2

HIV-1 protease Mutant 9 = HIV-1 protease Mutant 9 (Human immunodeficiency virus type 1, UniProt P04585); assay: Ki against HIV-1 protease Mutant 9; assay type: biochemical
HIV-1 protease Mutant 8 = HIV-1 protease Mutant 8 (Human immunodeficiency virus type 1, UniProt P04585); assay: Ki against HIV-1 protease Mutant 8; assay type: biochemical
[1] = Mutant 9, read-out: IC50 Mutant 9
[2] = Mutant 8, read-out: IC50 Mutant 8
[3] = Human immunodeficiency virus 1, HIV-1 isolate WT
[4] = Human immunodeficiency virus 1, read-out: IC50 Mutant 9
[5] = Human immunodeficiency virus 1, read-out: IC50 Mutant 8

| Structure (SMILES) | Ki (wild type HIV-1 protease; WT) [nM] | IC50 (HIV-1 isolates, WT; WT) [nM] | IC50 (HIV-1 isolates, Mutant 9; [1]) [nM] | IC50 (HIV-1 isolates, Mutant 8; [2]) [nM] | Ki (HIV-1 protease Mutant 9; Mutant 9) [nM] | Ki (HIV-1 protease Mutant 8; Mutant 8) [nM] | Ki (wild type HIV-1 protease; wild type HIV-1 protease) [nM] | IC50 (HIV-1 isolates, WT; [3]) [nM] | IC50 (HIV-1 isolates, Mutant 9; [4]) [nM] | IC50 (HIV-1 isolates, Mutant 8; [5]) [nM] | Ki (HIV-1 protease Mutant 9; HIV-1 protease Mutant 9) [nM] | Ki (HIV-1 protease Mutant 8; HIV-1 protease Mutant 8) [nM] | IC50 (HIV-1 isolates, WT; Human immunodeficiency virus 1) [nM] |
| --- | --- | --- | --- | --- | --- | --- | --- | --- | --- | --- | --- | --- | --- |
| CC(C)CN(C[C@@H](O)[C@H](Cc1ccccc1)NC(=O)OC1COC2OCCC12)S(=O)(=O)c1ccc2occ(CNCCc3ccccn3)c2c1 (some centres unmarked) [Compound 117] | < 0.1 | 7 | 49 | 27 | < 0.1 | < 0.3 | – | – | – | – | – | – | – |
| CC(C)CN(CC(O)C(Cc1ccccc1)NC(=O)OC1COC2OCCC12)S(=O)(=O)c1ccc2onc(CNCc3ccc4occc4c3)c2c1 (centres unmarked) [Compound 248] | – | – | – | – | – | – | < 0.1 | 7.9 | 54 | 24 | 0.33 | < 0.3 | – |
| CC(C)CN(CC(O)C(Cc1ccccc1)NC(=O)OC1COC2OCCC12)S(=O)(=O)c1ccc2onc(CSC(C)C)c2c1 (centres unmarked) [Compound 209] | – | – | – | – | – | – | < 0.1 | 3.5 | 210 | 50 | 2.3 | < 0.3 | – |
| CC(C)CN(CC(O)C(Cc1ccccc1)NC(=O)OC1COC2OCCC12)S(=O)(=O)c1ccc2oc(CN)cc2c1 (centres unmarked) [Compound 105] | < 0.1 | – | – | – | 1.9 | < 0.3 | – | – | 220 | 30 | – | – | 7 |
| CCOC(=O)NCc1coc2ccc(S(=O)(=O)N(CC(C)C)C[C@@H](O)[C@H](Cc3ccccc3)NC(=O)OC3COC4OCCC34)cc12 (some centres unmarked) [Compound 112] | < 0.1 | 1.8 | 29 | 11 | < 0.1 | < 0.3 | – | – | – | – | – | – | – |
| CCC(=O)NCc1coc2ccc(S(=O)(=O)N(CC(C)C)C[C@@H](O)[C@H](Cc3ccccc3)NC(=O)OC3COC4OCCC34)cc12 (some centres unmarked) [Compound 113] | < 0.1 | 7 | 50 | 20 | < 0.1 | < 0.3 | – | – | – | – | – | – | – |
| CCOC(=O)CNc1n[nH]c2ccc(S(=O)(=O)N(CC(C)C)CC(O)C(Cc3ccccc3)NC(=O)OC3COC4OCCC34)cc12 (centres unmarked) [Compound 310] | < 0.1 | – | – | – | 0.19 | < 0.3 | – | – | 60 | 70 | – | – | 50 |
| CC(C)CN(CC(O)C(Cc1ccccc1)NC(=O)OC1COC2OCCC12)S(=O)(=O)c1ccc2[nH]nc(NCC(C)(C)C)c2c1 (centres unmarked) [Compound 309] | 0.13 | – | – | – | 3.5 | < 0.3 | – | – | 250 | 25 | – | – | 4 |
| CCOC(=O)N(CCOC)Cc1noc2ccc(S(=O)(=O)N(CC(C)C)CC(O)C(Cc3ccccc3)NC(=O)OC3COC4OCCC34)cc12 (centres unmarked) [Compound 225] | – | – | – | – | – | – | < 0.1 | 3.6 | 80 | 27 | 0.44 | < 0.3 | – |
| CCSCCNCc1noc2ccc(S(=O)(=O)N(CC(C)C)CC(O)C(Cc3ccccc3)NC(=O)OC3COC4OCCC34)cc12 (centres unmarked) [Compound 226] | – | – | – | – | – | – | < 0.1 | 5.5 | 38 | 16 | < 0.1 | < 0.3 | – |
| CCCC[S+]([O-])Cc1noc2ccc(S(=O)(=O)N(CC(C)C)CC(O)C(Cc3ccccc3)NC(=O)OC3COC4OCCC34)cc12 (centres unmarked) [Compound 208] | – | – | – | – | – | – | < 0.1 | 3.9 | 60 | 36 | < 0.1 | < 0.3 | – |
| CC(C)CN(CC(O)C(Cc1ccccc1)NC(=O)OC1COC2OCCC12)S(=O)(=O)c1ccc2onc(COC(=O)C(C)(C)C)c2c1 (centres unmarked) [Compound 218] | – | – | – | – | – | – | < 0.1 | 11 | 80 | 18 | 2 | < 0.3 | – |
| CC(C)CN(CC(O)C(Cc1ccccc1)NC(=O)OC1COC2OCCC12)S(=O)(=O)c1ccc2[nH]nc(NC3CCCCC3)c2c1 (centres unmarked) [Compound 304] | < 0.1 | – | – | – | 0.93 | < 0.3 | – | – | 100 | 12 | – | – | 6.1 |
| CC(C)CN(CC(O)C(Cc1ccccc1)NC(=O)OC1COC2OCCC12)S(=O)(=O)c1ccc2occ(CO)c2c1 (centres unmarked) [Compound 124] | < 0.1 | – | – | – | 0.26 | < 0.3 | – | – | 130 | 12 | – | – | 8.7 |
| CC(C)CN(C[C@@H](O)[C@H](Cc1ccccc1)NC(=O)OC1CO[C@H]2OCC[C@@H]12)S(=O)(=O)c1ccc2c(c1)CCO2 (some centres unmarked) | < 0.1 | – | – | – | 1.5 | < 0.3 | – | – | 157 | 13 | – | – | 1 |
| CCOC(=O)NCc1noc2ccc(S(=O)(=O)N(CC(C)C)CC(O)C(Cc3ccccc3)NC(=O)OC3COC4OCCC34)cc12 (centres unmarked) [Compound 217] | – | – | – | – | – | – | < 0.1 | 2.3 | 20 | 30 | < 0.1 | < 0.3 | – |
| CCOC(=O)NCc1cc2cc(S(=O)(=O)N(CC(C)C)CC(O)C(Cc3ccccc3)NC(=O)OC3COC4OCCC34)ccc2o1 (centres unmarked) [Compound 121] | < 0.1 | – | – | – | 1.6 | < 0.3 | – | – | > 400 | 21 | – | – | 8 |
| CC(C)CN(CC(O)C(Cc1ccccc1)NC(=O)OC1COC2OCCC12)S(=O)(=O)c1ccc2onc(CNS(C)(=O)=O)c2c1 (centres unmarked) [Compound 207] | – | – | – | – | – | – | < 0.1 | 22 | 54 | 28 | 0.34 | < 0.3 | – |
| CCCNc1n[nH]c2ccc(S(=O)(=O)N(CC(C)C)CC(O)C(Cc3ccccc3)NC(=O)OC3COC4OCCC34)cc12 (centres unmarked) [Compound 305] | < 0.1 | – | – | – | 0.66 | < 0.3 | – | – | 180 | 30 | – | – | 16 |
| CC(C)CN(CC(O)C(Cc1ccccc1)NC(=O)OC1COC2OCCC12)S(=O)(=O)c1ccc2onc(CNCc3ccccc3)c2c1 (centres unmarked) [Compound 232] | – | – | – | – | – | – | < 0.1 | 7 | 80 | 55 | 0.11 | < 0.3 | – |
| CC(C)CN(CC(O)C(Cc1ccccc1)NC(=O)OC1COC2OCCC12)S(=O)(=O)c1ccc2onc(CS(C)(=O)=O)c2c1 (centres unmarked) [Compound 243] | – | – | – | – | – | – | < 0.1 | 8.2 | 120 | 24 | 0.96 | < 0.3 | – |
| CC(C)CN(CC(O)C(Cc1ccccc1)NC(=O)OC1COC2OCCC12)S(=O)(=O)c1ccc2[nH]nc(NCc3ccccc3)c2c1 (centres unmarked) [Compound 306] | 0.1 | – | – | – | 1.1 | < 0.3 | – | – | 95 | 35 | – | – | 5.5 |
| Cc1ccc(S(=O)(=O)N(C)Cc2noc3ccc(S(=O)(=O)N(CC(C)C)CC(O)C(Cc4ccccc4)NC(=O)OC4COC5OCCC45)cc23)cc1 (centres unmarked) [Compound 211] | – | – | – | – | – | – | < 0.1 | 2.1 | 300 | 51 | 1.7 | < 0.3 | – |
| CC(C)CN(C[C@@H](O)[C@H](Cc1ccccc1)NC(=O)OC1CO[C@H]2OCC[C@@H]12)S(=O)(=O)c1ccc2c(c1)CC(CO)O2 (some centres unmarked) | < 0.1 | – | – | – | 9 | 0.38 | – | – | 500 | 47 | – | – | 5.4 |
| CC(C)CN(C[C@@H](O)[C@H](Cc1ccccc1)NC(=O)OC1CO[C@H]2OCC[C@@H]12)S(=O)(=O)c1ccc2c(c1)C(C)CO2 (some centres unmarked) | < 0.1 | – | – | – | 7.5 | – | – | – | 900 | 56 | – | – | 1.5 |
